Assay results: ChEMBL document CHEMBL1671638, “Cloning, expression, and characterization of Babesia gibsoni dihydrofolate reductase-thymidylate synthase: inhibitory effect of antifolates on its catalytic activity and parasite proliferation” (Antimicrob Agents Chemother, 2008)
Calls of active or inactive are those of the source. No cut-off for these calls is given here.

Key:
[1] = (§1) Inhibition of Babesia gibsoni Dihydrofolate reductase-thymidylate synthase expressed in Escherichia coli BL21
Babesia gibsoni [2] = experiment: as §1
Babesia gibsoni [3] = experiment: Antiparasitic activity against Babesia gibsoni infected in dog erythrocytes assessed as growth inhibition at 50 nM by Giemsa staining based microscopy; type: functional, organism-based
Babesia gibsoni [4] = experiment: Antiparasitic activity against Babesia gibsoni infected in dog erythrocytes assessed as growth inhibition at 150 nM by Giemsa staining based microscopy; type: functional, organism-based
Babesia gibsoni [5] = experiment: Antiparasitic activity against Babesia gibsoni infected in dog erythrocytes assessed as growth inhibition at 20 uM by Giemsa staining based microscopy; type: functional, organism-based
Babesia gibsoni [6] = experiment: Antiparasitic activity against Babesia gibsoni infected in dog erythrocytes assessed as growth inhibition at 80 uM by Giemsa staining based microscopy; type: functional, organism-based

CN(Cc1cnc2nc(N)nc(N)c2n1)c1ccc(C(=O)N[C@@H](CCC(=O)O)C(=O)O)cc1 [METHOTREXATE]
IC50 [1]: 0.0686 µM
inhibition (Babesia gibsoni [2]): Dose-dependent effect
inhibition (Babesia gibsoni [3]): Active
inhibition (Babesia gibsoni [4]): Active

CCc1nc(N)nc(N)c1-c1ccc(Cl)cc1 [PYRIMETHAMINE]
IC50 [1]: 0.05 µM
inhibition (Babesia gibsoni [2]): Dose-dependent effect
Activity (Babesia gibsoni [5]): Active
Activity (Babesia gibsoni [6]): Active

COc1cc(Cc2cnc(N)nc2N)cc(OC)c1OC [TRIMETHOPRIM]
IC50 [1]: 0.055 µM
inhibition (Babesia gibsoni [2]): Dose-dependent effect
Activity (Babesia gibsoni [5]): Active
Activity (Babesia gibsoni [6]): Active
